From ChEMBL document CHEMBL1221206, “Targeting virulence: a new paradigm for antimicrobial therapy” (Nat Chem Biol, 2007)

Test system: 5637
Test: Inhibition of type-1 pilus-mediated Escherichia coli HB101 adhesion to human 5637 cells after 1 hr
Type: cell-based
Settings: dose or concentration not given here

Compound: CN(C)Cc1c(Cc2cccc3ccccc23)c(-c2ccccc2)c2n(c1=O)[C@H](C(=O)O)CS2
- inhibition: 90%
